Where no end group is shown, it is not given here.

The subject of test [1] is BALB/c mice. Put plainly: rmIL-23-induced mouse auricle inflammation model. In kind it is in vivo. As to the method: AJP001 conjugated peptide (SEQ ID NO: 2) was dissolved in physiological saline and intradermally administered to BALB/c mice (female, 6-week-old, N=8) at 1 mg/body 3 times at two-week intervals. At the time point of 6 weeks after the initial administration, rmIL-23 was administered intradermally to the ear to induce inflammation. With the first administration as Day 0, rmIL-23 was administered 4 times in total on Days 2, 4, and 7. As a control group, an rmIL-23 group without administration of peptide was provided. Auricular thickness was measured using a thickness gauge on each day of administration of rmIL-23 and on Day 9. In order to measure the mRNA expression of IL-17A, IL-22, IL-1β, LCN-2, and CXCL-2 in the auricle, the auricle was collected on the third day of rmIL-23 administration under the same conditions. For mRNA evaluation, a normal group without administration of rmIL-23 was set. […] Using TaqMan Gene Expression Assays (S18: Mm02601777_g1; CXCL-2: Mm00436450_m1; IL-17A: Mm00439618_m1; IL-22: Mm01226722_m1; IL-1β: Mm00434228_m1; LCN-2: Mm01324470_m1), Ct value was measured using Applied Biosystems 7900HT Fast Real Time PCR System. The mRNA expression level was calculated by the ΔΔCt method and evaluated as a relative value to the normal group. […]

Test [2] deals with hairless rats. The test can be described thus: Psoriasis model, 2% imiquimod (IMQ) applied to auricle of hairless rats. It counts as in vivo, rat. Conditions: 1 mg/body 3 times. Here is the method: AJP001 conjugated peptide (SEQ ID NO: 2) was dissolved in physiological saline and intradermally administered to hairless rats (female, 6-week-old, N=6) at 1 mg/body 3 times at two-week intervals. From 6 weeks after the initial administration, 2% imiquimod (IMQ) was intermittently applied to the auricle 4 times in total at 1-day intervals to create a psoriasis model. A 2% IMQ application group was provided as a control group. The drug efficacy was evaluated by measuring the thickness of the auricle with a thickness gauge (Mitutoyo Corporation) from the first day of IMQ application to the eighth day. Furthermore, on the 8th day, histopathological evaluation of the auricular tissue was performed. Specifically, the collected auricle was fixed with 10% neutral formalin, and then a specimen was prepared according to a conventional method and stained with HE. HE-stained specimens were observed under a microscope, and inflammatory cell infiltration, edema, and thickness were scored in 4 stages (0: normal, 1: mild, 2: intermediate, 3: severe) and the total score was calculated. Furthermore, the antibody titer (GMT) of the serum at the time point of 6 weeks was measured by the ELISA method (same method as in Example 1. Anti-Rat IgG (GE Healthcare) was used as the secondary antibody). […]

In test [3] the test system is recombinant mouse IL-23 protein (rmIL-23). The test can be described thus: Binding of mouse antiserum to rmIL-23, ELISA. Conditions: antiserum of BALB/c mice. Here is the method:
[…] […] Specifically, a 96-well plate immobilized with an epitope peptide dissolved at 10 μg/mL in carbonate buffer was blocked with 5% skim milk/PBS, and then serum serially diluted with 5% skim milk/PBS was added, and the mixture was left standing at 4° C. overnight. After washing the wells with PBS-T, HRP-labeled anti-mouse IgG antibody (GE Healthcare) diluted with 5% skim milk/PBS was added and the mixture was shaken at room temperature for 3 hr. After washing the wells with PBS-T, TMB solution (SIGMA) was added, the wells were allowed to stand for 30 min in the dark, the reaction was stopped by adding 0.5M H2SO4, and the absorbance at 450 nm was measured using a plate reader. The serum dilution rate that gave 1/2 (OD=1.75) of the maximum absorbance was defined as the antibody titer, and the geometric mean titer: GMT was calculated from the individual values. Binding to IL-23 protein was measured by the ELISA method in the same manner as the antibody titer, using rmIL-23 (Antibodies-online GmbH) as the solid-phased antigen and goat serum for blocking.
AJP001 conjugated peptide (SEQ ID NO: 2) was dissolved in physiological saline and intradermally administered to BALB/c mice (female, 6-week-old, N=6) at 1 mg/body 3 times at two-week intervals, and blood was collected every 2 weeks until 8 weeks. […]

As to “SEQ ID NO 2: AJP001-Ahx-B cell epitope peptide conjugate; epitope SSSQQWQR (mouse 152-159) (not fully specified (N-terminus); listed as Mus musculus)”, in test [1] (1 mg/body 3 times, third day of rmIL-23 administration), the “mRNA expression of IL-17A, IL-22, IL-1β, LCN-2, and CXCL-2 in auricle” value is recorded as “suppressive action”. In addition, the “increase in auricular thickness” value in test [1] (1 mg/body intradermal 3 times, rmIL-23 intradermal to ear from week 6) was “suppressive action”; in test [2] (2% IMQ 4 times from week 6, day 1 to 8), “suppressive action”. The “inflammatory changes of tissue (auricle, HE score)” value in test [2] (2% IMQ, day 8) is “suppressive action”. Besides, the “binding to rmIL-23” value in test [3] (0.5 mg/body twice, 5 weeks after initial administration) is recorded as “confirmed”. For the same substance, the “binding ability to rmIL-23” value in test [3] (1 mg/body 3 times, 6 weeks) is listed as “contained antibodies that bind to rmIL-23”.

The values above are taken from US20250057928A1, “VACCINE COMPOSITION FOR INDUCING ANTI-IL-23 ANTIBODY” (OSAKA UNIVERSITY, priority 2021, published 2025).
